Test: Water absorption capacity at 65% relative atmospheric humidity
Assay type: physicochemical
Settings: relative atmospheric humidity of 65%; 1 g of anhydrous substance kept in sealed chamber until weight is constant
Method: A) Water absorption capacity The water absorption capacity of the compound of Example 1 is determined at a relative atmospheric humidity of 65%. The control substances used are in each case glycerol and propylene glycol. In each case 1 g of the anhydrous substance is kept in a sealed chamber until the weight is constant. The water absorption capacity is calculated as follows: [formula] Ectoin has a water absorption of 25% and, in comparison with glycerol or propylene glycol (60 and 45%, respectively) a less pronounced hygroscopic behavior. However, with regard to its use as a moisturizer, the dehydrating effect known from unduly high glycerol concentrations can be ruled out.

Structure (SMILES)	water absorption [%]
CC1=N[C@H](C(=O)O)CCN1 [Ectoin, (S)-1,4,5,6-tetrahydro-2-methyl-4-pyrimidinecarboxylic acid]	25
OCC(O)CO [glycerol]	60
CC(O)CO (stereo not drawn) [propylene glycol]	45
